PubChem BioAssay AID248 (DTP/NCI, 2004)
Where “and” joins values, the source holds several entries; their conditions need not be identical. Equal entries are not always repeated. Inconclusive results and toxic doses are left out. Cut-off read from the data, not from the text of the source: active = T/C of 150% or more; inactive = T/C below 125%.

System: L1210 leukemia ip in BDF1 mice, survival T/C
Assay: NCI In Vivo Anticancer Drug Screen. Data for tumor model L1210 Leukemia (intraperitoneal) in B6D2F1 (BDF1) mice
Conditions: endpoint: mean survival time, higher = longer survival
Method in brief: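 Ratio derived from survival: compound-dosed mice over vehicle-dosed mice, all bearing a transplantable tumor.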

[1] = dose: 50.0 mg/kg/injection, schedule: Q01DX001 (ip), vehicle: carboxymethylcellulose (CMC)
[2] = dose: 100.0 mg/kg/injection, schedule: Q01DX001 (ip), vehicle: carboxymethylcellulose (CMC)
[3] = dose: 200.0 mg/kg/injection, schedule: Q01DX001 (ip), vehicle: carboxymethylcellulose (CMC)
[4] = dose: 400.0 mg/kg/injection, schedule: Q01DX001 (ip), vehicle: carboxymethylcellulose (CMC)
[5] = dose: 100.0 mg/kg/injection, schedule: Q01DX009 (ip), vehicle: saline with Tween-80
[6] = dose: 100.0 mg/kg/injection, schedule: Q01DX001 (ip), vehicle: saline
[7] = dose: 200.0 mg/kg/injection, schedule: Q01DX001 (ip), vehicle: saline
[8] = dose: 400.0 mg/kg/injection, schedule: Q01DX001 (ip), vehicle: saline
[9] = dose: 75.0 mg/kg/injection, schedule: Q01DX001 (ip), vehicle: saline
[10] = dose: 150.0 mg/kg/injection, schedule: Q01DX001 (ip), vehicle: saline
[11] = dose: 100.0 mg/kg/injection, schedule: Q04DX003 (ip), vehicle: saline with Tween-80
[12] = dose: 200.0 mg/kg/injection, schedule: Q01DX009 (ip), vehicle: saline with Tween-80
[13] = dose: 200.0 mg/kg/injection, schedule: Q04DX003 (ip), vehicle: saline with Tween-80
[14] = dose: 400.0 mg/kg/injection, schedule: Q01DX009 (ip), vehicle: saline with Tween-80
[15] = dose: 400.0 mg/kg/injection, schedule: Q04DX003 (ip), vehicle: saline with Tween-80
[16] = dose: 100.0 mg/kg/injection, schedule: Q04DX003 (ip), vehicle: Klucel (hydroxypropylcellulose) (HPC)
[17] = dose: 200.0 mg/kg/injection, schedule: Q04DX003 (ip), vehicle: Klucel (hydroxypropylcellulose) (HPC)
[18] = dose: 400.0 mg/kg/injection, schedule: Q04DX003 (ip), vehicle: Klucel (hydroxypropylcellulose) (HPC)
[19] = dose: 100.0 mg/kg/injection, schedule: Q04DX003 (ip), vehicle: saline
[20] = dose: 100.0 mg/kg/injection, schedule: Q01DX009 (ip), vehicle: Klucel (hydroxypropylcellulose) (HPC)
[21] = dose: 200.0 mg/kg/injection, schedule: Q01DX009 (ip), vehicle: Klucel (hydroxypropylcellulose) (HPC)
[22] = dose: 200.0 mg/kg/injection, schedule: Q04DX003 (ip), vehicle: saline

Measured: T/C

O=C1c2ccccc2C(=O)C2C3C=CC(C3)C12 (stereo not given)
inactive: [1] 93 % of control | [2] 100 % of control | [3] 100 % of control | [4] 103 % of control

O=C(O)c1cc(S(=O)(=O)F)cc(S(=O)(=O)F)c1
inactive: [5] 86 % of control

CC1OCC(C[N+](C)(C)C)O1 (stereo not given)
inactive: dose: 0.09 mg/kg/injection, schedule: Q04DX002 (ip), vehicle: saline 95 % of control | dose: 0.18 mg/kg/injection, schedule: Q04DX002 (ip), vehicle: saline 106 % of control | dose: 0.37 mg/kg/injection, schedule: Q04DX002 (ip), vehicle: saline 95 % of control | dose: 0.75 mg/kg/injection, schedule: Q04DX002 (ip), vehicle: saline 103 % of control and 109 % of control | dose: 1.5 mg/kg/injection, schedule: Q04DX002 (ip), vehicle: saline 100 % of control and 106 % of control

CC(=O)c1ccccc1C
inactive: [6] 104 % of control | [7] 112 % of control

Clc1ccccc1C1Nc2ccccc2S1 (stereo not given)
inactive: [6] 109 % of control | [7] 104 % of control | [8] 99 % of control

Cc1cc(C)c(C(=O)OC(c2ccccc2)C(c2ccccc2)N2CCOCC2)c(C)c1 (stereo not given)
inactive: [9] 96 % of control | [10] 97 % of control | dose: 300.0 mg/kg/injection, schedule: Q01DX001 (ip), vehicle: saline 86 % of control

CSC(=O)Oc1ccc([N+](=O)[O-])cc1
inactive: [5] 106 % of control | [11] 104 % of control | [12] 96 % of control | [13] 100 % of control | [14] 101 % of control | [15] 91 % of control

CC(=O)COC(=O)c1ccc(N(C)CC(C)=O)cc1
inactive: [16] 95 % of control | [17] 86 % of control | [18] 93 % of control

CCCNCCCCCCNCCC
inactive: [19] 98 % of control

CC1=NNC(=O)C1CCO (stereo not given)
inactive: dose: 25.0 mg/kg/injection, schedule: Q01DX009 (ip), vehicle: Klucel (hydroxypropylcellulose) (HPC) 98 % of control | dose: 50.0 mg/kg/injection, schedule: Q01DX009 (ip), vehicle: Klucel (hydroxypropylcellulose) (HPC) 98 % of control | [20] 92 % of control | [16] 89 % of control | [21] 95 % of control | [17] 96 % of control | dose: 400.0 mg/kg/injection, schedule: Q01DX009 (ip), vehicle: Klucel (hydroxypropylcellulose) (HPC) 97 % of control | [18] 100 % of control

Nc1n[nH]c(N)n1.[Pt]
inactive: dose: 50.0 mg/kg/injection, schedule: Q01DX009 (ip), vehicle: saline 102 % of control | dose: 50.0 mg/kg/injection, schedule: Q04DX003 (ip), vehicle: saline 97 % of control | dose: 100.0 mg/kg/injection, schedule: Q01DX009 (ip), vehicle: saline 102 % of control | [19] 102 % of control | [22] 100 % of control

Cc1ccc(-n2ccnc2)c(N=Cc2ccc(N(CCCl)CCCl)cc2C)c1
inactive: dose: 100.0 mg/kg/injection, schedule: Q04DX002 (ip), vehicle: Klucel (hydroxypropylcellulose) (HPC) 98 % of control | dose: 200.0 mg/kg/injection, schedule: Q04DX002 (ip), vehicle: Klucel (hydroxypropylcellulose) (HPC) 102 % of control | dose: 400.0 mg/kg/injection, schedule: Q04DX002 (ip), vehicle: Klucel (hydroxypropylcellulose) (HPC) 124 % of control

O=C1C=C2CCN(C(=O)c3ccccc3)CC2O1 (stereo not given)
inactive: [6] 100 % of control | [7] 105 % of control | [8] 100 % of control

O=c1[nH]cc(NCc2ccco2)c(=O)[nH]1
inactive: [16] 101 % of control | [17] 88 % of control | [18] 93 % of control

COC(=O)C(Br)C(Br)c1ccc(OC)c(OC)c1 (stereo not given)
inactive: [16] 96 % of control | [17] 101 % of control | [18] 96 % of control

c1ccc(CSc2ncnc3nncnc23)cc1
inactive: dose: 5.0 mg/kg/injection, schedule: Q01DX001 (ip), vehicle: other 104 % of control | dose: 10.0 mg/kg/injection, schedule: Q01DX001 (ip), vehicle: other 95 % of control | dose: 20.0 mg/kg/injection, schedule: Q01DX001 (ip), vehicle: other 110 % of control | dose: 40.0 mg/kg/injection, schedule: Q01DX001 (ip), vehicle: other 101 % of control | dose: 80.0 mg/kg/injection, schedule: Q01DX001 (ip), vehicle: other 98 % of control | dose: 100.0 mg/kg/injection, schedule: Q01DX001 (ip), vehicle: other 89 % of control | dose: 200.0 mg/kg/injection, schedule: Q01DX001 (ip), vehicle: other 101 % of control

COC1(OC)C2(Cl)CC(c3ccc(Cl)cc3)C1(Cl)C(Cl)=C2Cl (stereo not given)
inactive: [5] 110 % of control | [16] 98 % of control | [12] 101 % of control | [17] 105 % of control | [14] 100 % of control | [18] 104 % of control

CCCCCCCCCCCCCCCCCC(=O)C(C)(C)C
inactive: dose: 25.0 mg/kg/injection, schedule: Q01DX001 (ip), vehicle: Klucel (hydroxypropylcellulose) (HPC) 92 % of control | dose: 50.0 mg/kg/injection, schedule: Q01DX001 (ip), vehicle: Klucel (hydroxypropylcellulose) (HPC) 98 % of control | dose: 100.0 mg/kg/injection, schedule: Q01DX001 (ip), vehicle: Klucel (hydroxypropylcellulose) (HPC) 98 % of control | dose: 200.0 mg/kg/injection, schedule: Q01DX001 (ip), vehicle: Klucel (hydroxypropylcellulose) (HPC) 98 % of control | dose: 400.0 mg/kg/injection, schedule: Q01DX001 (ip), vehicle: Klucel (hydroxypropylcellulose) (HPC) 95 % of control

CSC(=S)NNC(=O)C1CCCCC1
inactive: [19] 106 % of control | [22] 98 % of control | dose: 400.0 mg/kg/injection, schedule: Q04DX003 (ip), vehicle: saline 104 % of control

S=C([S][Sn]([S]C(=S)N(c1ccccc1)c1ccccc1)([c]1ccccc1)[c]1ccccc1)N(c1ccccc1)c1ccccc1
inactive: dose: 100.0 mg/kg/injection, schedule: Q01DX001 (ip), vehicle: steriod suspending solution 93 % of control | dose: 200.0 mg/kg/injection, schedule: Q01DX001 (ip), vehicle: steriod suspending solution 112 % of control

O=C(NCCCl)Nc1cccc(Cl)c1
inactive: dose: 25.0 mg/kg/injection, schedule: Q01DX001 (ip), vehicle: saline with Tween-80 97 % of control | dose: 50.0 mg/kg/injection, schedule: Q01DX001 (ip), vehicle: saline with Tween-80 94 % of control | dose: 100.0 mg/kg/injection, schedule: Q01DX001 (ip), vehicle: saline with Tween-80 86 % of control

CC(C)=NNc1ccnc(SCc2ccccc2)n1
inactive: [16] 96 % of control | [17] 97 % of control | [18] 102 % of control

CC(=O)c1ccc(N=Nc2c(N)nc(N)nc2N)cc1
inactive: [6] 94 % of control | [7] 94 % of control | [8] 94 % of control

C=CN1C(=O)N(C=C)C(C)(CC(C)C)C1=O (stereo not given)
inactive: dose: 50.0 mg/kg/injection, schedule: Q01DX009 (ip), vehicle: saline with Tween-80 104 % of control | [5] 103 % of control | [11] 92 % of control | [12] 103 % of control | [13] 92 % of control

O=C(O)c1ccc(C(Cl)(Cl)Cl)cc1
inactive: dose: 50.0 mg/kg/injection, schedule: Q01DX009 (ip), vehicle: saline sonified 96 % of control | dose: 100.0 mg/kg/injection, schedule: Q01DX009 (ip), vehicle: saline sonified 115 % of control | [16] 102 % of control | dose: 200.0 mg/kg/injection, schedule: Q01DX009 (ip), vehicle: saline sonified 118 % of control | [17] 94 % of control

O=C(O)C1C2C=CC(O2)C1C(=O)NCc1cccnc1 (stereo not given)
inactive: [6] 106 % of control | [7] 94 % of control | [8] 95 % of control

NNC(=O)C1C2CCCCC21 (stereo not given)
inactive: [11] 107 % of control

O=C(O)CNC(=O)CNC(=O)C(Br)Cc1ccccc1 (stereo not given)
inactive: [20] 98 % of control | [11] 101 % of control | [21] 88 % of control | [13] 95 % of control | [15] 100 % of control

CCOc1ccccc1C(=O)Nc1ccc(Br)cc1
inactive: [1] 91 % of control | [2] 91 % of control | [3] 96 % of control | [4] 102 % of control

Cc1ccc(C)c(CCl)c1
inactive: [9] 101 % of control | [10] 95 % of control
